Results reported in publication PMC4800460 (Journal of Biomolecular Screening, 2015).

Target: NT647-MEK1 (MEK1 residues 37–383) (Homo sapiens, UniProt Q02750)
Test: Automated microscale thermophoresis
Type: binding

Sequence of NT647-MEK1 (MEK1 residues 37–383) (Q02750 37-383): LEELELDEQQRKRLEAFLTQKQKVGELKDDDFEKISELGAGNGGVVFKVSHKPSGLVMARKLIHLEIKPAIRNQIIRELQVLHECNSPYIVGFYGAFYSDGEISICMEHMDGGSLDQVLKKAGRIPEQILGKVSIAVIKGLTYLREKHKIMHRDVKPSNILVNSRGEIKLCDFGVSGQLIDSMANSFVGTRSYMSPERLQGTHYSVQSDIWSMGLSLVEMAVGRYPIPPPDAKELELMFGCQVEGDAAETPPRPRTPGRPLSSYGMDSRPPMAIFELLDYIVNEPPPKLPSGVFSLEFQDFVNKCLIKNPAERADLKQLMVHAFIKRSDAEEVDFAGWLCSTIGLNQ

Kd (Kd of ATP in the absence of MgCl2, without MgCl2): 140 µM
Kd (Kd of ATP in the presence of MgCl2, MST buffer with 10 mM MgCl2): 4.5 µM
Compound: Nc1ncnc2c1ncn2[C@@H]1O[C@H](COP(=O)(O)OP(=O)(O)OP(=O)(O)O)[C@@H](O)[C@H]1O [ATP, adenosine triphosphate]
